One may read the melting point as the temperature of the solid-liquid transition.

Each structure is given as a SMILES string.

Consider `COc1cc2c(cc1C(F)(F)F)N(C(=O)Nc1cccc(C(=O)Nc3cccnc3)c1)CC2`, for which the melting point is above 220 °C.

For the molecule `CCC(O)c1nc(C)nc2c1c(C)c(C)n2-c1c(C)cc(C)cc1C` (centres undefined), the melting point lay in the range of 143 to 144 °C.

`O=C1CCC(N2Cc3c(OCc4ccc(CNC5CCCCC5)cc4)cccc3C2=O)C(=O)N1` (centres undefined): the melting point lay within 175 to 177 °C.

`CCCCc1cnc2ccccc2c1Nc1ccc(C(=O)O)cc1` gave a melting point of 276 °C.

Molecule `O=C1[C@H]2CCC[C@H]2Nc2ccccc2N1Cc1ccc2ccccc2c1` (relative stereo) returned a melting point of 148 °C.

The molecule `O=Cc1cc2n(c1)Cc1ccccc1-n1ccnc1-2` showed a melting point of 203 to 205 °C.

Regarding `CN(c1cccc2c(Cl)c(-c3nccs3)[nH]c12)S(=O)(=O)c1cccs1`, the melting point fell in the range of 222 to 223 °C.

`O=Cc1ccccc1OCC(=O)NCCO[N+](=O)[O-]` displayed a melting point of 99 to 101 °C.

In the case of `CSc1ccc(C)cc1[N+](=O)[O-]`, the melting point lay within 71 to 73 °C.

On to `O=Cc1cccc2c1CN(c1ccccc1)C2`, for which the melting point was 120 to 122 °C.

`CC(C)Oc1cc(F)nc(N)n1` had a melting point of 66 to 68 °C.

For the molecule `O=c1[nH]cnc2c1CCN(Cc1ccccc1)C2`, the melting point was 199 °C.

The molecule `CCCC(=O)c1cnc2c(OCC)nccc2c1Nc1ccccc1C` had a melting point of 112 °C.

In turn, `Cn1c(C(F)(F)F)cc(=O)n(-c2ccc3snc(C(C)(C)C(=O)O)c3c2)c1=O` came in with a melting point of 155 to 156 °C.

`COC(=O)c1ccc(CNC(=O)C2Cc3ccccc3N2S(=O)(=O)c2ccc(-c3cccc(C(F)(F)F)c3)cc2)c(Cl)c1` (centres undefined) came in with a melting point of 78 to 87 °C.

With `C=Cc1ccc(CN2C(=O)c3ccccc3C2=O)c(Cl)c1`, the melting point lay in the range of 141 to 143 °C.

`COc1nc(N)nc2c1ncn2CCC(CO)CO`: the melting point lay within 84 to 86 °C.

`Cc1ccc(S(=O)(=O)N2C[C@@H]3C[C@H]2CN3C)cc1` yielded a melting point of 87 to 88 °C.

`CC(CN(C)S(C)(=O)=O)n1nnc2cc3c(=O)n(C4CC4)nnc3cc2c1=O` (centres undefined) showed a melting point of 170 to 172 °C.

Molecule `O=C(N[C@@H](CO)C(=O)NCCCOC1CCCCC1)c1ccc(C(=O)c2cccnc2)cc1` yielded a melting point of 57 to 62 °C.

In turn, `COC(=O)C1=C(C)NC(C)=C(C(=O)OCCN2CCN(C(c3ccc(Cl)cc3)c3ccc(Cl)cc3)CC2)C1c1cccc([N+](=O)[O-])c1` (centres undefined) displayed a melting point of 83 to 87 °C.

As to `O=C(Nc1ccc2c(c1)CCC2)C(=O)N1CCC(Cc2ccccc2)CC1`, the melting point fell in the range of 106 to 109 °C.

`COc1ccc(CNn2c(=O)ccc3cnc(S(C)(=O)=O)nc32)cc1Cl` displayed a melting point of 212 to 214 °C.

In turn, `Cc1cc(-c2ccc(C(F)(F)F)cc2)nc(S(C)(=O)=O)n1` gave a melting point of 94 to 97 °C.

The molecule `CC1(C2CC2)OC(=O)Nc2ccc(-c3cccc(Cl)c3)cc21` (centres undefined) returned a melting point of 158 to 159 °C.

Molecule `Cc1cc(CCc2ccc(-c3ccc(C(F)(F)F)cc3)cc2)ccc1OCC(=O)O` had a melting point of 174 to 176 °C.

Consider `Cc1c(Cc2cccc(C(F)(F)F)c2)sc2c(-c3cccc(C(=O)NCC(N)=O)c3)cccc12`, for which the melting point lay in the range of 187 to 188 °C.

`CCC1c2cccn2-c2ccc(C(F)(F)F)cc2N1S(=O)(=O)c1ccc(O)c(Cl)c1` (centres undefined): the melting point was in the range of 169 to 171 °C.

In turn, `CCOC(=O)CCCCCCC(NC(N)=O)C(=O)OCC` (centres undefined) came in with a melting point of 79 to 80 °C.

Consider `c1ccc2c(c1)nc1n2CCC(CN2CCNCC2)S1` (centres undefined), for which the melting point fell in the range of 151 to 153 °C.

Molecule `CC(CCCC(F)(C(F)(F)F)C(F)(F)F)C1CC(=O)C2=C3CCC4CC(O)CCC4(C)C3CCC21C` (centres undefined) registered a melting point of 177 to 179 °C.

On to `O=C(NCCc1ccc(O)cc1)c1cccnc1`, for which the melting point lay in the range of 179 to 181 °C.

`Cc1cc(-c2nc3cccnn3c2-c2ccnc(N)c2)ccc1F` yielded a melting point of 179 to 180 °C.

As to `Cc1ccc(S(=O)(=O)N(C)c2cc(C)cc([N+](=O)[O-])c2N)cc1`, the melting point was 208 °C.

The values are drawn from a melting point compilation (Tetko et al.; mined from patent text by program, amines drawn as free bases though some values may be those of a salt).
